Ki, IC50 and EC50 data for 19 compounds are collected here from EP0774460A1, “BENZOIC ACID COMPOUND AND USE THEREOF AS MEDICINE” (YOSHITOMI PHARMACEUTICAL INDUSTRIES, LTD., priority 1994, dated 1995).

Read-outs that look alike come from different tables or passages of the source. Where only a bound is given, the exact number is not on record here.

One assay deals with T1, 5-HT4 receptor (Cavia porcellus, UniProt O70528).
T1 construct: crude synapse membrane sample was prepared from guinea pig striatum; from tissue; host or cells: guinea pig striatum, crude synaptic membranes
T1 sequence (O70528 whole entry): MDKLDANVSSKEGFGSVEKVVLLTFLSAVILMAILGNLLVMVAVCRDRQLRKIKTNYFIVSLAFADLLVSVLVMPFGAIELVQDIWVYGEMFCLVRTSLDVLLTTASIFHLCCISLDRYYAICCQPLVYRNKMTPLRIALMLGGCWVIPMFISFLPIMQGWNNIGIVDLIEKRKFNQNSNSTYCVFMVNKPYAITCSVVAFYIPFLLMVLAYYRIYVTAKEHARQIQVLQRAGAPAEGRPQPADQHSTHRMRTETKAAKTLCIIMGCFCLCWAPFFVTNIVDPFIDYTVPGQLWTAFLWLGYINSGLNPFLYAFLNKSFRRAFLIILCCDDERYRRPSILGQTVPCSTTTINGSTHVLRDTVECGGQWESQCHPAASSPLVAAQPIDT
The assay can be described thus: 5-HT4 receptor binding test. Further details: species or system guinea pig. The procedure: Experimental Example 1 : 5-HT4 receptor binding test
According to the method of C.J. Grossman et al. (British Journal of Pharmacology, vol. 109, pp. 618-624), a specific 5-HT4 receptor binding test was run using, as a tracer ligand, 1-methyl-1H-indole-3-carboxylic acid · 1-(2-methylsulfonylaminoethyl)-piperidin-4-ylmethyl ester substituted by tritium (hereinafter to be referred to as [3H]GR113808). Specifically, crude synapse membrane sample was prepared from guinea pig striatum, suspended in 50 mM HEPES buffer (pH 7.4) and used for testing. The test compound having several different concentrations and [3H]GR113808 (final concentration 0.1 nM) were added to this suspension and allowed to react at 37°C. Thirty minutes later, the reaction mixture was filtered by suction with cell harvester. The filter was washed with 50 mM HEPES buffer, and the radioactivity on the filter was counted by liquid scintillation counter. The non-specific binding was determined in the presence of 1 µM GR113808. The concentration of the test compound necessary for 50% inhibition (IC50) and Ki value were determined from graph.

The target of the next assay is T2, 5-HT3 receptor (Rattus norvegicus, UniProt P35563).
T2 construct: crude synapse membrane sample was prepared from rat cerebral cortex; from tissue; host or cells: rat cerebral cortex, crude synaptic membranes
T2 sequence (P35563 24-483): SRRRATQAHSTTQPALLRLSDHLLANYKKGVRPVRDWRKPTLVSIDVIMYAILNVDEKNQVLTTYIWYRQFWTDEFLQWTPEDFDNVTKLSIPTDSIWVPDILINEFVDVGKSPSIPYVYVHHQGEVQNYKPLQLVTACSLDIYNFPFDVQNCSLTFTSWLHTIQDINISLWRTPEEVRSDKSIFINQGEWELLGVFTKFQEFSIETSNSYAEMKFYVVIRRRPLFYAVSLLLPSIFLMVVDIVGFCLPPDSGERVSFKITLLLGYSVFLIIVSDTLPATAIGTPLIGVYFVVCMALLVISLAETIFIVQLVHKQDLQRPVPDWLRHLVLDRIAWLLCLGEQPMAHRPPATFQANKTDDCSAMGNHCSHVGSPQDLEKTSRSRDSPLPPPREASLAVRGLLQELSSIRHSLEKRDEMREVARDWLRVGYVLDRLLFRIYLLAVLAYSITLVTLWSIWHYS
The assay can be described thus: 5-HT3 receptor binding test. The settings on record: for Ki: cells without asterisk, read-out: Affinity for receptor (Ki value, nM) 5-HT3. The procedure:
Experimental Example 2 : 5-HT3 receptor binding test
According to the method of Peroutka et al (European Journal of Pharmacology, vol. 148, pp. 297-299), a specific 5-HT3 receptor binding test was run using, as a tracer ligand, endo-1-methyl-N-(9-methyl-9-azabicyclo[3.3.1]non-3-yl)-1H-indazole-3-carboxamide substituted by tritium (hereinafter to be referred to as [3H]Granisetron). Specifically, crude synapse membrane sample was prepared from rat cerebral cortex, suspended in 50 mM HEPES buffer (pH 7.4) and used for testing. The test compound having several different concentrations and [3H]Granisetron (final concentration 1.0 nM) were added to this suspension and allowed to react at 25°C. Thirty minutes later, the reaction mixture was filtered by suction with cell harvester. The filter was washed with 50 mM Tris buffer (pH 7.4), and the radioactivity on the filter was counted using liquid scintillation counter or β-plate. The non-specific binding was determined in the presence of 1 µM Tropisetron. The concentration of the test compound necessary for 50% inhibition (IC50) and Ki value were determined from graph.

Assay [1] has as its target isolated guinea pig ascending colon (Cavia porcellus, UniProt O70528). The assay can be described thus: contraction of isolated guinea pig ascending colon. The format is cell-based. The settings on record: male Hartley guinea pig ascending colon, Tyrode solution 37°C, relative to methacholine (30 µM) contraction; read-out: Contraction of removed colon (EC50). The procedure:
Experimental Example 3 : contraction of isolated guinea pig ascending colon
About 3 cm long ascending colon segment was taken from male Hartley guinea pig and suspended in 10 ml of a Tyrode solution ventilated with a mixed gas of oxygen (95%) and CO2 (5%) at 37°C with the load of 2 g. The contraction was isotonically measured via isotonic transducer. After an equilibrium period of about 30 min, the test compound was administered non-cumulatively from lower concentrations, and dose-dependent contraction was measured. The test compound was administered at 15 minutes intervals. Then, contraction by the test compound in the presence of a 5-HT4 receptor antagonist, 4-amino-3-chloro-6-methoxybenzoic acid · 2-diethylaminoethyl ester (0.3 µM, hereinafter to be referred to as SDZ 205-557) was determined, and antagonistic effect on the reaction by SDZ 205-557 was confirmed.
The contraction by the test compound was evaluated based on the ratio of reaction relative to mean contraction induced by methacholine (30 µM) administered before and after each determination of dose-dependent contraction. The contraction was probit-converted using the maximum value of dose-response curve as 100, and expressed by EC50 as determined from linear regression and maximum reaction ratio.

Setting [2] is: [3H]GR113808 0.1 nM, crude synapse membrane from guinea pig striatum, 37°C, read-out: Affinity for receptor (Ki value, nM) 5-HT4.
Where [3] appears, read: [3H]Granisetron 1.0 nM, crude synapse membrane from rat cerebral cortex, 25°C, cells marked * are IC50, read-out: Affinity for receptor 5-HT3 (∗ shows IC50).
[4] abbreviates: [3H]Granisetron 1.0 nM, crude synapse membrane from rat cerebral cortex, 25°C.

Sequence of isolated guinea pig ascending colon (O70528 whole entry): as the sequence (O70528 whole entry) above

On to `CCCNC(=O)NCCCCCN1CCC(CNC(=O)c2cc(Cl)c(N)cc2OC)CC1` [Example 48, 4-amino-5-chloro-2-methoxy-N-(1-(5-(3-n-propylureido)pentyl)piperidin-4-ylmethyl)benzamide], for which the Ki (in general, a measure of affinity in units of concentration, obtained from inhibition or displacement) at 5-HT4 receptor (setting [2]) turned out to be 2.1 nM. For the same compound, the half-inhibitory concentration (IC50) (usually the concentration needed to halve the response being measured) at 5-HT3 receptor (setting [3]) was greater than 1000 nM. In assay [1], the concentration giving a half-maximal response (EC50) – broadly, the concentration that produces a half-maximal response – is 4.8 nM.
On to `CCCNC(=O)NCCCCN1CCC(CNC(=O)c2cc(Cl)c(N)cc2OC)CC1` [Example 45, 4-amino-5-chloro-2-methoxy-N-(1-(4-(3-n-propylureido)butyl)piperidin-4-ylmethyl)benzamide], for which the Ki at 5-HT4 receptor (setting [2]) amounted to 5.5 nM. In addition, the 50% inhibitory concentration (IC50) at 5-HT3 receptor (setting [3]) is greater than 1000 nM.
The corresponding values for `COc1cc(N)c(Cl)cc1C(=O)NCC1CCN(CCCC(=O)Nc2ccccc2)C1` (stereo not drawn) [Example 71, 4-amino-5-chloro-2-methoxy-N-(1-(3-phenylcarbamoylpropyl)pyrrolidin-3-ylmethyl)benzamide] are 7.4 nM and greater than 1000 nM.
With `COc1cc(N)c(Cl)cc1C(=O)NCC1CCN(CCCNC(=O)c2ccc(Cl)cc2)C1` (stereo not drawn) [Example 13, 4-amino-5-chloro-N-(1-(3-(4-chlorobenzoylamino)propyl)pyrrolidin-3-ylmethyl)-2-methoxybenzamide], the Ki on 5-HT4 receptor (setting [2]) worked out at 3.1 nM. The IC50 on 5-HT3 receptor (setting [3]) is greater than 1000 nM.
`COc1cc(N)c(Cl)cc1C(=O)NCC1CCN(CCCCCNC(=O)c2ccc(C)cc2)CC1` [Example 31, 4-amino-5-chloro-N-(1-(5-(4-methylbenzoylamino)pentyl)piperidin-4-ylmethyl)-2-methoxybenzamide]: at 5-HT4 receptor (setting [2]), the inhibition constant (Ki) was determined as 2.3 nM. In addition, the IC50 on 5-HT3 receptor (setting [3]) was greater than 1000 nM.
As for `COc1cc(N)c(Cl)cc1C(=O)NC[C@H]1CCN(CCCCNC(=O)c2cn(Cc3ccccc3)c3ccccc23)C1` [Example 95, N-(4-((3R)-3-(4-amino-5-chloro-2-methoxybenzoylaminomethyl)pyrrolidin-1-yl)butyl)-1-benzyl-1N-indole-3-carboxamide], the Ki at 5-HT4 receptor (setting [2]) is 1.2 nM. In addition, the 50% inhibitory concentration (IC50) on 5-HT3 receptor (setting [3]) is greater than 1000 nM.
`COc1cc(N)c(Cl)cc1C(=O)NCC1CCN(CCCCCNC(=O)Nc2ccc(Cl)cc2)CC1` [Example 59, 4-amino-5-chloro-N-(1-(5-(3-(4-chlorophenyl)ureido)pentyl)-piperidin-4-ylmethyl)-2-methoxybenzamide]: the Ki on 5-HT4 receptor (setting [2]) is 1.1 nM; on 5-HT3 receptor (setting [4]), 190 nM.
Regarding `COc1cc(N)c(Cl)cc1C(=O)NC[C@H]1CCN(CCCCCNC(=O)c2ccccc2)C1` [Example 27, 4-amino-N-((3R)-1-(5-benzoylaminopentyl)pyrrolidin-3-yl-methyl)-5-chloro-2-methoxybenzamide], the Ki at 5-HT4 receptor (setting [2]) was determined as 2.2 nM. Also, the IC50 on 5-HT3 receptor (setting [3]) is greater than 1000 nM. The EC50 in assay [1] stood at 5.3 nM.
Regarding `COc1cc(N)c(Cl)cc1C(=O)NC[C@H]1CCN(CCCNC(=O)c2ccccc2)C1` [Example 11, 4-amino-N-((3R)-1-(3-benzoylaminopropyl)pyrrolidin-3-ylmethyl)-5-chloro-2-methoxybenzamide], at 5-HT4 receptor (setting [2]), the inhibitory constant (Ki) was determined as 6.2 nM. The half-inhibitory concentration (IC50) at 5-HT3 receptor (setting [3]) is greater than 1000 nM.
As for `COc1cc(N)c(Cl)cc1C(=O)NC[C@H]1CCN(CCCCNC(=O)c2cccc3ccccc23)C1` [Example 22, 4-amino-5-chloro-2-methoxy-N-((3R)-1-(4-(1-naphthoylamino)butyl)pyrrolidin-3-ylmethyl)benzamide], the Ki on 5-HT4 receptor (setting [2]) stood at 1.3 nM. Also, on 5-HT3 receptor (setting [3]), the concentration for half-maximal inhibition (IC50) was greater than 1000 nM. Besides, the EC50 in assay [1] was 3.3 nM.
The corresponding values for `COc1cc(N)c(Cl)cc1C(=O)NCC1CCN(CCCCNC(=O)c2cn(C)c3ccccc23)CC1` [Example 98, N-(4-(4-(4-amino-5-chloro-2-methoxybenzoylaminomethyl)piperidin-1-yl)butyl)-1-methyl-1H-indole-3-carboxamide] are 1.6 nM, greater than 1000 nM and 4 nM.
The corresponding values for `COc1cc(N)c(Cl)cc1C(=O)NCC1CCN(CCCCCNC(=O)c2cccc(Cl)c2)CC1` [Example 30, 4-amino-5-chloro-N-(1-(5-(3-chlorobenzoylamino)pentyl)piperidin-4-ylmethyl)-2-methoxybenzamide] are 0.81 nM, greater than 1000 nM and 1.6 nM.
On to `COc1cc(N)c(Cl)cc1C(=O)NC[C@H]1CCN(CCCCNC(=O)c2cn(C(C)C)c3ccccc23)C1` [Example 94, N-(4-((3R)-3-(4-amino-5-chloro-2-methoxybenzoylaminomethyl)pyrrolidin-1-yl)butyl)-1-isopropyl-1H-indole-3-carboxamide], for which, at 5-HT4 receptor, the Ki is 3.5 nM. Besides, the concentration for half-maximal inhibition (IC50) on 5-HT3 receptor was greater than 1000 nM.
With `COc1cc(N)c(Cl)cc1C(=O)NCC1CCN(CCCCCN2C(=O)c3ccccc3C2=O)C1` (stereo not drawn) [Example 70, 4-amino-5-chloro-N-(1-(5-(2,3-dihydro-1,3-dioxo-1H-isoindol-2-yl)pentyl)pyrrolidin-3-ylmethyl)-2-methoxybenzamide], on 5-HT4 receptor (setting [2]), the inhibitory constant (Ki) was 7.4 nM. The concentration for half-maximal inhibition (IC50) at 5-HT3 receptor (setting [3]) was greater than 1000 nM. The concentration giving a half-maximal response (EC50) in assay [1] was determined as 6.7 nM.
The corresponding values for `COc1cc(N)c(Cl)cc1C(=O)NC[C@H]1CCN(CCCCCNC(=O)Nc2ccccc2)C1` [Example 56, 4-amino-5-chloro-2-methoxy-N-((3R)-1-(5-(3-phenylureido)pentyl)pyrrolidin-3-ylmethyl)benzamide] are 0.65 nM, greater than 1000 nM and 1 nM.
Consider `COc1cc(N)c(Cl)cc1C(=O)NC[C@H]1CCN(CCNC(=O)CCCc2ccccc2)C1` [Example 100, 4-amino-5-chloro-2-methoxy-N-((3R)-1-(2-(4-phenylbutyrylamino)ethyl)pyrrolidin-3-ylmethyl)benzamide], for which, at 5-HT4 receptor (setting [2]), the inhibition constant (Ki) is 5.3 nM. In addition, at 5-HT3 receptor (setting [3]), the IC50 was greater than 1000 nM.
On to `COc1cc(N)c(Cl)cc1C(=O)NCC1CCN(CCCNC(=O)c2ccc(C)cc2)C1` (stereo not drawn) [Example 17, 4-amino-5-chloro-2-methoxy-N-(1-(3-(4-methylbenzoylamino)propyl)pyrrolidin-3-ylmethyl)benzamide], for which the inhibitory constant (Ki) on 5-HT4 receptor (setting [2]) is 3.1 nM. Besides, the 50% inhibitory concentration (IC50) on 5-HT3 receptor (setting [3]) was greater than 1000 nM.
`COc1cc(N)c(Cl)cc1C(=O)NCCCCCN1CC[C@H](CNC(=O)c2cc(Cl)c(N)cc2OC)C1` [Example 78, 4-amino-N-((3R)-1-(5-(4-amino-5-chloro-2-methoxybenzoylamino)pentyl)pyrrolidin-3-ylmethyl)-5-chloro-2-methoxybenzamide]: the inhibitory constant (Ki) at 5-HT4 receptor (setting [2]) was 1.4 nM; on 5-HT3 receptor (setting [4]), 370 nM.
Turning to `COc1cc(N)c(Cl)cc1C(=O)NCC1CCN(CCCNC(=O)c2cccs2)C1` (stereo not drawn) [Example 19, 4-amino-5-chloro-2-methoxy-N-(1-(3-(2-thiophenecarbonylamino)propyl)pyrrolidin-3-ylmethyl)benzamide], the Ki on 5-HT4 receptor (setting [2]) amounted to 4.4 nM. Moreover, on 5-HT3 receptor (setting [3]), the IC50 was greater than 1000 nM.
